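Five compound concentrations were applied to cells in 96-well plates for 48 hours; endpoints were derived by simple linear interpolation of the resulting dose-response curve. TGI denotes the concentration required for complete inhibition of growth.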
Experiments:
Assay in all cases: NCI-60 cell line screen, 48 h
A498 renal = system: A498 renal
BT-549 breast = system: BT-549 breast
MCF7 breast = system: MCF7 breast
PC-3 prostate = system: PC-3 prostate
UACC-257 melanoma = system: UACC-257 melanoma
OVCAR-5 ovarian = system: OVCAR-5 ovarian
CCRF-CEM leukemia = system: CCRF-CEM leukemia
MOLT-4 leukemia = system: MOLT-4 leukemia
ACHN renal = system: ACHN renal
HCT-116 colon = system: HCT-116 colon
NCI-H522 lung = system: NCI-H522 lung
CAKI-1 renal = system: CAKI-1 renal
HCT-15 colon = system: HCT-15 colon
SF-295 CNS = system: SF-295 CNS
NCI/ADR-RES ovarian = system: NCI/ADR-RES ovarian
U251 CNS = system: U251 CNS
HT29 colon = system: HT29 colon
UACC-62 melanoma = system: UACC-62 melanoma
SNB-75 CNS = system: SNB-75 CNS
SF-539 CNS = system: SF-539 CNS
HS 578T breast = system: HS 578T breast
MALME-3M melanoma = system: MALME-3M melanoma
OVCAR-8 ovarian = system: OVCAR-8 ovarian
SK-MEL-28 melanoma = system: SK-MEL-28 melanoma
NCI-H226 lung = system: NCI-H226 lung
SN12C renal = system: SN12C renal
MDA-MB-435 = system: MDA-MB-435
HCC-2998 colon = system: HCC-2998 colon
HL-60(TB) leukemia = system: HL-60(TB) leukemia
SK-MEL-2 melanoma = system: SK-MEL-2 melanoma
MDA-N = system: MDA-N
OVCAR-4 ovarian = system: OVCAR-4 ovarian
A549 NSCLC = system: A549 NSCLC
786-0 renal = system: 786-0 renal
NCI-H460 lung = system: NCI-H460 lung
NCI-H23 lung = system: NCI-H23 lung
TK-10 renal = system: TK-10 renal
K-562 leukemia = system: K-562 leukemia
RXF 393 renal = system: RXF 393 renal
IGROV1 ovarian = system: IGROV1 ovarian
SK-MEL-5 melanoma = system: SK-MEL-5 melanoma
SF-268 CNS = system: SF-268 CNS
DU-145 prostate = system: DU-145 prostate
T-47D breast = system: T-47D breast
HOP-62 NSCLC = system: HOP-62 NSCLC
LOX IMVI melanoma = system: LOX IMVI melanoma
OVCAR-3 ovarian = system: OVCAR-3 ovarian
SW-620 colon = system: SW-620 colon
UO-31 renal = system: UO-31 renal
HOP-92 NSCLC = system: HOP-92 NSCLC
MDA-MB-231 breast = system: MDA-MB-231 breast
SNB-19 CNS = system: SNB-19 CNS
RPMI-8226 leukemia = system: RPMI-8226 leukemia
COLO 205 colon = system: COLO 205 colon
M14 melanoma = system: M14 melanoma
KM12 colon = system: KM12 colon
EKVX NSCLC = system: EKVX NSCLC
SK-OV-3 ovarian = system: SK-OV-3 ovarian
SR leukemia = system: SR leukemia

## Clc1ccc(CSCc2ccc(Cl)cc2Cl)c(Cl)c1
A498 renal
  TGI: > 100 µM
BT-549 breast
  TGI: > 100 µM
MCF7 breast
  TGI: 86.9 µM
PC-3 prostate
  TGI: > 100 µM
UACC-257 melanoma
  TGI: 64.7 µM
OVCAR-5 ovarian
  TGI: > 100 µM
CCRF-CEM leukemia
  TGI: 51.7 µM
MOLT-4 leukemia
  TGI: > 100 µM
ACHN renal
  TGI: > 100 µM
HCT-116 colon
  TGI: > 100 µM
NCI-H522 lung
  TGI: 74 µM
CAKI-1 renal
  TGI: > 100 µM
HCT-15 colon
  TGI: > 100 µM
SF-295 CNS
  TGI: > 100 µM
NCI/ADR-RES ovarian
  TGI: > 100 µM
U251 CNS
  TGI: > 100 µM
HT29 colon
  TGI: > 100 µM
UACC-62 melanoma
  TGI: > 100 µM
SNB-75 CNS
  TGI: 89 µM
SF-539 CNS
  TGI: > 100 µM
HS 578T breast
  TGI: > 100 µM
MALME-3M melanoma
  TGI: 72.5 µM
OVCAR-8 ovarian
  TGI: > 100 µM
SK-MEL-28 melanoma
  TGI: > 100 µM
NCI-H226 lung
  TGI: > 100 µM
SN12C renal
  TGI: > 100 µM
MDA-MB-435
  TGI: > 100 µM
HCC-2998 colon
  TGI: 98.2 µM
HL-60(TB) leukemia
  TGI: > 100 µM
SK-MEL-2 melanoma
  TGI: 51.3 µM
MDA-N
  TGI: > 100 µM
OVCAR-4 ovarian
  TGI: > 100 µM
A549 NSCLC
  TGI: > 100 µM
786-0 renal
  TGI: > 100 µM
NCI-H460 lung
  TGI: > 100 µM
NCI-H23 lung
  TGI: > 100 µM
TK-10 renal
  TGI: > 100 µM
K-562 leukemia
  TGI: > 100 µM
RXF 393 renal
  TGI: 94.2 µM
IGROV1 ovarian
  TGI: > 100 µM
SK-MEL-5 melanoma
  TGI: 97.9 µM
SF-268 CNS
  TGI: > 100 µM
DU-145 prostate
  TGI: > 100 µM
T-47D breast
  TGI: > 100 µM
HOP-62 NSCLC
  TGI: > 100 µM
LOX IMVI melanoma
  TGI: > 100 µM
OVCAR-3 ovarian
  TGI: > 100 µM
SW-620 colon
  TGI: > 100 µM
UO-31 renal
  TGI: > 100 µM
HOP-92 NSCLC
  TGI: > 100 µM
MDA-MB-231 breast
  TGI: > 100 µM
SNB-19 CNS
  TGI: > 100 µM
RPMI-8226 leukemia
  TGI: 88.6 µM
COLO 205 colon
  TGI: > 100 µM
M14 melanoma
  TGI: > 100 µM
KM12 colon
  TGI: > 100 µM
EKVX NSCLC
  TGI: > 100 µM
SK-OV-3 ovarian
  TGI: > 100 µM

## N#C/C(N)=C(\C#N)N=CNc1ccccc1N
A498 renal
  TGI: > 100 µM
BT-549 breast
  TGI: > 100 µM
MCF7 breast
  TGI: > 100 µM
PC-3 prostate
  TGI: > 100 µM
UACC-257 melanoma
  TGI: > 100 µM
OVCAR-5 ovarian
  TGI: > 100 µM
CCRF-CEM leukemia
  TGI: > 100 µM
MOLT-4 leukemia
  TGI: > 100 µM
ACHN renal
  TGI: > 100 µM
HCT-116 colon
  TGI: > 100 µM
NCI-H522 lung
  TGI: > 100 µM
CAKI-1 renal
  TGI: > 100 µM
HCT-15 colon
  TGI: > 100 µM
SF-295 CNS
  TGI: > 100 µM
NCI/ADR-RES ovarian
  TGI: > 100 µM
U251 CNS
  TGI: > 100 µM
HT29 colon
  TGI: > 100 µM
UACC-62 melanoma
  TGI: > 100 µM
SNB-75 CNS
  TGI: > 100 µM
SF-539 CNS
  TGI: > 100 µM
HS 578T breast
  TGI: > 100 µM
MALME-3M melanoma
  TGI: > 100 µM
SR leukemia
  TGI: > 100 µM
OVCAR-8 ovarian
  TGI: > 100 µM
SK-MEL-28 melanoma
  TGI: > 100 µM
NCI-H226 lung
  TGI: > 100 µM
SN12C renal
  TGI: > 100 µM
MDA-MB-435
  TGI: > 100 µM
HCC-2998 colon
  TGI: > 100 µM
HL-60(TB) leukemia
  TGI: > 100 µM
SK-MEL-2 melanoma
  TGI: > 100 µM
MDA-N
  TGI: > 100 µM
OVCAR-4 ovarian
  TGI: > 100 µM
A549 NSCLC
  TGI: > 100 µM
786-0 renal
  TGI: > 100 µM
NCI-H460 lung
  TGI: > 100 µM
NCI-H23 lung
  TGI: > 100 µM
TK-10 renal
  TGI: > 100 µM
K-562 leukemia
  TGI: > 100 µM
IGROV1 ovarian
  TGI: > 100 µM
SK-MEL-5 melanoma
  TGI: > 100 µM
SF-268 CNS
  TGI: > 100 µM
DU-145 prostate
  TGI: > 100 µM
T-47D breast
  TGI: > 100 µM
HOP-62 NSCLC
  TGI: > 100 µM
LOX IMVI melanoma
  TGI: > 100 µM
OVCAR-3 ovarian
  TGI: > 100 µM
SW-620 colon
  TGI: > 100 µM
UO-31 renal
  TGI: > 100 µM
MDA-MB-231 breast
  TGI: > 100 µM
SNB-19 CNS
  TGI: > 100 µM
RPMI-8226 leukemia
  TGI: > 100 µM
COLO 205 colon
  TGI: > 100 µM
M14 melanoma
  TGI: > 100 µM
KM12 colon
  TGI: > 100 µM
EKVX NSCLC
  TGI: > 100 µM
SK-OV-3 ovarian
  TGI: > 100 µM

## O=C(CN1CCCC1)Nc1ccc2sc3ccccc3c(=O)c2n1
BT-549 breast
  TGI: 70 µM
MCF7 breast
  TGI: > 100 µM
PC-3 prostate
  TGI: 57.4 µM
OVCAR-5 ovarian
  TGI: 62.3 µM
CCRF-CEM leukemia
  TGI: 48.2 µM
MOLT-4 leukemia
  TGI: 15.6 µM
ACHN renal
  TGI: 31.7 µM
HCT-116 colon
  TGI: 68.3 µM
NCI-H522 lung
  TGI: 36 µM
CAKI-1 renal
  TGI: 47.1 µM
HCT-15 colon
  TGI: > 100 µM
SF-295 CNS
  TGI: 67.8 µM
NCI/ADR-RES ovarian
  TGI: 54.5 µM
U251 CNS
  TGI: 46.3 µM
HT29 colon
  TGI: > 100 µM
UACC-62 melanoma
  TGI: 36.6 µM
SNB-75 CNS
  TGI: 60 µM
SF-539 CNS
  TGI: 35.3 µM
HS 578T breast
  TGI: 52.1 µM
SR leukemia
  TGI: > 100 µM
OVCAR-8 ovarian
  TGI: 52.5 µM
SK-MEL-28 melanoma
  TGI: 39.7 µM
SN12C renal
  TGI: > 100 µM
MDA-MB-435
  TGI: 35.3 µM
HCC-2998 colon
  TGI: 39.8 µM
SK-MEL-2 melanoma
  TGI: 49.1 µM
MDA-N
  TGI: 77.6 µM
OVCAR-4 ovarian
  TGI: > 100 µM
A549 NSCLC
  TGI: 38.8 µM
786-0 renal
  TGI: 48.1 µM
NCI-H460 lung
  TGI: > 100 µM
NCI-H23 lung
  TGI: 99.1 µM
TK-10 renal
  TGI: > 100 µM
K-562 leukemia
  TGI: 46.7 µM
IGROV1 ovarian
  TGI: 66.5 µM
SK-MEL-5 melanoma
  TGI: 53.4 µM
SF-268 CNS
  TGI: 85.9 µM
DU-145 prostate
  TGI: > 100 µM
T-47D breast
  TGI: > 100 µM
HOP-62 NSCLC
  TGI: 65 µM
LOX IMVI melanoma
  TGI: 37.3 µM
OVCAR-3 ovarian
  TGI: > 100 µM
SW-620 colon
  TGI: 33.6 µM
UO-31 renal
  TGI: 27.9 µM
HOP-92 NSCLC
  TGI: 74.6 µM
MDA-MB-231 breast
  TGI: > 100 µM
SNB-19 CNS
  TGI: > 100 µM
RPMI-8226 leukemia
  TGI: 63 µM
COLO 205 colon
  TGI: 44.8 µM
M14 melanoma
  TGI: 54.4 µM
KM12 colon
  TGI: 44.2 µM
EKVX NSCLC
  TGI: > 100 µM
SK-OV-3 ovarian
  TGI: 58.7 µM

Source: PubChem BioAssay (NCI)
